According to patent publication USRE47689E1, “Compounds for treating spinal muscular atrophy” (PTC Therapeutics, Inc., priority 2011, dated 2019):
Read-outs that look alike come from different tables or passages of the source.

How the values were obtained:
[1] = tested on: SMN2 minigene (full length SMN2 minigene mRNA containing SMN2 exon 7); test: SMN2 minigene mRNA splicing RT-qPCR assay in cultured cells; format: cell-based, human; conditions: Homo sapiens, HEK293-H, read-out: EC1.5x for production of full length SMN2 mRNA
Summary of the method: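 Read-out: full-length (exon 7-included) SMN2 minigene mRNA by multiplex RT-qPCR with GAPDH, efficiency-corrected (1+E)^−Ct, GAPDH-normalized and divided by vehicle. Stably transfected HEK293H cells, 24 h compound exposure, duplicates per concentration. Value is EC1.5x, reported as star ranges.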

[2] = tested on: Smn protein; test: Smn protein assay in cultured cells (SMN HTRF); format: cell-based, human; conditions: 48 hours; for maximum fold (Fold) increase of Smn protein: SMA patient fibroblast cells, 7-point concentration data, fold increase relative to vehicle control (SMN HTRF); for EC1.5x (concentration giving 1.5-fold Smn protein increase): SMA Type 1 patient fibroblast cells (GM03813), 7-point concentration curve, SMN HTRF, concentration producing 1.5 times Smn protein vs DMSO vehicle control, read-out: EC1.5x for Smn protein expression
Summary of the method: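 Lysates in RIPA with protease inhibitors are incubated overnight at room temperature with HTRF anti-SMN antibodies. EC1.5x is derived from fold increase in ΔF over vehicle.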

[3] = HEK293H cells stably transfected with SMN2-A minigene, 24 hours, 7-point concentration curve, 1.5-fold relative to vehicle-treated cells

SMILES	melting point	EC (1.5-fold) ([1]; 24 h)	maximum fold (Fold) increase of Smn protein [2]	EC (1.5-fold) [1, 3]	EC1.5x (concentration giving 1.5-fold Smn protein increase) [2]
O=c1oc2cc(N3CC4CCC(C3)N4)ccc2cc1-c1cn2cccc(Cl)c2n1 [Compound 526, 3-(8-chloroimidazo[1,2-a]pyridin-2-yl)-7-(3,8-diazabicyclo[3.2.1]oct-3-yl)-2H-chromen-2-one]	213 to 216 °C	0.1 to 0.3 µM	*** (fold increase between >1.35 and ≤1.5)	–	–
O=c1oc2cc(N3CC4CCC3CN4)ccc2cc1-c1cn2cccc(Cl)c2n1 (stereo not drawn) [Compound 527, 3-(8-chloroimidazo[1,2-a]pyridin-2-yl)-7-(2,5-diazabicyclo[2.2.2]oct-2-yl)-2H-chromen-2-one]	178 to 182 °C	–	**** (fold increase between >1.5 and ≤1.65)	0.1 to 0.3 µM	< 300 nM
O=c1oc2cc(N3CCN4CCC[C@H]4C3)ccc2cc1-c1cn2cccc(F)c2n1 [Compound 528, 3-(8-fluoroimidazo[1,2-a]pyridin-2-yl)-7-[(8aS)-hexahydropyrrolo[1,2-a]pyrazin-2(1H)-yl]-2H-chromen-2-one]	235 to 238 °C	–	** (fold increase between >1.2 and ≤1.35)	1 to 3 µM	–
C[C@@H]1CN(c2ccc3cc(-c4cn5cccc(F)c5n4)c(=O)oc3c2)CCN1 [Compound 530, 3-(8-fluoroimidazo[1,2-a]pyridin-2-yl)-7-[(3R)-3-methylpiperazin-1-yl]-2H-chromen-2-one]	226 to 228 °C	–	**** (fold increase between >1.5 and ≤1.65)	0.3 to 1 µM	< 300 nM
O=c1oc2cc(N3CCN4CCC[C@@H]4C3)ccc2cc1-c1cn2cccc(F)c2n1 [Compound 531, 3-(8-fluoroimidazo[1,2-a]pyridin-2-yl)-7-[(8aR)-hexahydropyrrolo[1,2-a]pyrazin-2(1H)-yl]-2H-chromen-2-one]	238 to 241 °C	–	** (fold increase between >1.2 and ≤1.35)	0.3 to 1 µM	–
O=c1oc2cc(N3CCNCC3)ccc2cc1-c1cn2cc(F)cc(F)c2n1 [Compound 532, 3-(6,8-difluoroimidazo[1,2-a]pyridin-2-yl)-7-(piperazin-1-yl)-2H-chromen-2-one]	276 to 286 °C	–	* (maximum fold increase of ≤1.2)	0.3 to 1 µM	–
Cc1cc(F)c2nc(-c3cc4ccc(N5CCN(C)[C@H](C)C5)cc4oc3=O)cn2c1 [Compound 533, 7-[(3R)-3,4-dimethylpiperazin-1-yl]-3-(8-fluoro-6-methylimidazo[1,2-a]pyridin-2-yl)-2H-chromen-2-one]	269 to 277 °C	–	**** (fold increase between >1.5 and ≤1.65)	< 0.1 µM	< 300 nM
Cc1ccn2cc(-c3cc4ccc(N5CCN6CCC[C@H]6C5)cc4oc3=O)nc2c1 [Compound 534, 7-[(8aS)-hexahydropyrrolo[1,2-a]pyrazin-2(1H)-yl]-3-(7-methylimidazo[1,2-a]pyridin-2-yl)-2H-chromen-2-one]	258 to 265 °C	–	*** (fold increase between >1.35 and ≤1.5)	1 to 3 µM	–
Cc1ccn2cc(-c3cc4ccc(N5C[C@H]6CC[C@@H](C5)N6C)cc4oc3=O)nc2c1 [Compound 535, 7-[(1R,5S)-8-methyl-3,8-diazabicyclo[3.2.1]oct-3-yl]-3-(7-methylimidazo[1,2-a]pyridin-2-yl)-2H-chromen-2-one]	224 to 229 °C	1 to 3 µM	* (maximum fold increase of ≤1.2)	–	–
COc1c(F)cc(F)cc1-c1cc2ccc(N3CCNCC3)cc2oc1=O [Compound 538, 3-(3,5-difluoro-2-methoxyphenyl)-7-(piperazin-1-yl)-2H-chromen-2-one]	109 to 111 °C	–	* (maximum fold increase of ≤1.2)	3 to 30 µM	–
COc1c(F)cc(F)cc1-c1cc2ccc(N3CCN[C@@H](C)C3)cc2oc1=O [Compound 539, 3-(3,5-difluoro-2-methoxyphenyl)-7-[(3S)-3-methylpiperazin-1-yl]-2H-chromen-2-one]	156 to 158 °C	–	* (maximum fold increase of ≤1.2)	3 to 30 µM	–
COc1c(F)cc(F)cc1-c1cc2ccc(N3C[C@@H](C)N[C@@H](C)C3)cc2oc1=O [Compound 540, 3-(3,5-difluoro-2-methoxyphenyl)-7-[(3R,5S)-3,5-dimethylpiperazin-1-yl]-2H-chromen-2-one]	109 to 111 °C	–	* (maximum fold increase of ≤1.2)	3 to 30 µM	–
COc1ccc(-c2cc3ccc(N4CCNCC4)cc3oc2=O)cc1C [Compound 541, 3-(4-methoxy-3-methylphenyl)-7-(piperazin-1-yl)-2H-chromen-2-one]	171 to 173 °C	–	* (maximum fold increase of ≤1.2)	1 to 3 µM	–
COc1ccc(-c2cc3ccc(N4CCN[C@@H](C)C4)cc3oc2=O)cc1C [Compound 542, 3-(4-methoxy-3-methylphenyl)-7-[(3S)-3-methylpiperazin-1-yl]-2H-chromen-2-one]	127 to 131 °C	–	* (maximum fold increase of ≤1.2)	1 to 3 µM	–
COc1ccc(-c2cc3ccc(N4C[C@@H](C)N[C@@H](C)C4)cc3oc2=O)cc1C [Compound 543, 7-[(3R,5S)-3,5-dimethylpiperazin-1-yl]-3-(4-methoxy-3-methylphenyl)-2H-chromen-2-one]	111 to 113 °C	–	* (maximum fold increase of ≤1.2)	1 to 3 µM	–
COc1ccc(-c2cc3ccc(N4CCNCC4)cc3oc2=O)cc1F [Compound 544, 3-(3-fluoro-4-methoxyphenyl)-7-(piperazin-1-yl)-2H-chromen-2-one]	241 to 243 °C	–	** (fold increase between >1.2 and ≤1.35)	0.1 to 0.3 µM	–
COc1ccc(-c2cc3ccc(N4CCN[C@@H](C)C4)cc3oc2=O)cc1F [Compound 545, 3-(3-fluoro-4-methoxyphenyl)-7-[(3S)-3-methylpiperazin-1-yl]-2H-chromen-2-one]	141 to 143 °C	–	*** (fold increase between >1.35 and ≤1.5)	0.1 to 0.3 µM	–
C[C@H]1CN(c2ccc3cc(-c4cccc(F)c4F)c(=O)oc3c2)CCN1 [Compound 546, 3-(2,3-difluorophenyl)-7-[(3S)-3-methylpiperazin-1-yl]-2H-chromen-2-one]	116 to 118 °C	–	* (maximum fold increase of ≤1.2)	3 to 30 µM	–
CN(C)c1ccc(-c2cc3ccc(N4CCNCC4)cc3oc2=O)cn1 [Compound 547, 3-[6-(dimethylamino)pyridin-3-yl]-7-(piperazin-1-yl)-2H-chromen-2-one]	179 to 181 °C	–	* (maximum fold increase of ≤1.2)	3 to 30 µM	–
C[C@H]1CN(c2ccc3cc(-c4ccc(N(C)C)nc4)c(=O)oc3c2)CCN1 [Compound 548, 3-[6-(dimethylamino)pyridin-3-yl]-7-[(3S)-3-methylpiperazin-1-yl]-2H-chromen-2-one]	194 to 196 °C	–	* (maximum fold increase of ≤1.2)	3 to 30 µM	–
C[C@H]1CN(c2ccc3cc(-c4ccncc4)c(=O)oc3c2)CCN1 [Compound 549, 7-[(3S)-3-methylpiperazin-1-yl]-3-(pyridin-4-yl)-2H-chromen-2-one]	210 to 213 °C	1 to 3 µM	** (fold increase between >1.2 and ≤1.35)	–	–
Cc1cn2cc(-c3cc4c(F)cc(N5CCCNCC5)cc4oc3=O)nc2cn1 [Compound 550, 7-(1,4-diazepan-1-yl)-5-fluoro-3-(6-methylimidazo[1,2-a]pyrazin-2-yl)-2H-chromen-2-one]	270 to 274 °C	–	**** (fold increase between >1.5 and ≤1.65)	< 0.1 µM	< 300 nM
Cc1nccn2cc(-c3cc4ccc(N5CCN(C)CC5)cc4oc3=O)nc12 [Compound 551, 3-(8-methylimidazo[1,2-a]pyrazin-2-yl)-7-(4-methylpiperazin-1-yl)-2H-chromen-2-one]	221 to 222 °C	–	*** (fold increase between >1.35 and ≤1.5)	0.3 to 1 µM	< 300 nM
Cc1nccn2cc(-c3cc4ccc(N5C[C@@H](C)N[C@@H](C)C5)cc4oc3=O)nc12 [Compound 552, 7-[(3R,5S)-3,5-dimethylpiperazin-1-yl]-3-(8-methylimidazo[1,2-a]pyrazin-2-yl)-2H-chromen-2-one]	250 to 258 °C	–	**** (fold increase between >1.5 and ≤1.65)	< 0.1 µM	< 300 nM
